According to the supplement of paper PMC12325586:

Test system: MIA PaCa-2
[1] = OFD1 knockdown: no (no doxycycline)
[2] = OFD1 knockdown: yes (Tet-on shOFD1, 100 ng/mL doxycycline)

SMILES	IC50 cell viability [1]	IC50 cell viability [2]
COc1c(C)c2c(c(O)c1C/C=C(\C)CCC(=O)OCCN1CCOCC1)C(=O)OC2 [S1501]	11.9 µM	11.5 µM
Cc1ccc(Nc2nccc(N(C)c3ccc4c(C)n(C)nc4c3)n2)cc1S(N)(=O)=O [S3012]	14 µM	12.6 µM
COc1nc(N)nc2c1ncn2[C@@H]1O[C@H](CO)[C@@H](O)[C@@H]1O [S1213]	1.66 µM	1.5 µM
CCC(C)n1ncn(-c2ccc(N3CCN(c4ccc(OCC5COC(Cn6cncn6)(c6ccc(Cl)cc6Cl)O5)cc4)CC3)cc2)c1=O (configuration not stated) [S2476]	22.1 µM	23 µM
C/C(=C\c1csc(C)n1)[C@@H]1C[C@@H]2O[C@]2(C)CCC[C@H](C)[C@H](O)[C@@H](C)C(=O)C(C)(C)[C@@H](O)CC(=O)O1 [S1364]	0.76 µM	0.87 µM
Cc1nnc(C(C)C)n1[C@H]1C[C@H]2CC[C@@H](C1)N2CC[C@H](NC(=O)C1CCC(F)(F)CC1)c1ccccc1 [S2003]	11 µM	10.3 µM
O=C(c1cc(Cc2n[nH]c(=O)c3ccccc23)ccc1F)N1CCN(C(=O)C2CC2)CC1 [S1060]	53.8 µM	31.9 µM
S=c1[nH]cnc2nc[nH]c12 [S1305]	27.5 µM	27.7 µM
N#CC[C@H](C1CCCC1)n1cc(-c2ncnc3[nH]ccc23)cn1 [S2902]	19.6 µM	17.9 µM
C=C1/C(=C\C=C2/CCC[C@]3(C)[C@@H]([C@H](C)/C=C/[C@H](C)C(C)C)CC[C@@H]23)C[C@@H](O)C[C@@H]1O [S1467]	46.5 µM	45.7 µM
O=S(=O)(O)CCS [S1735]	19.2 µM	18.3 µM
